Assay results published in patent US8916586B2, “Anti-angiogenic compound” (University College Dublin—National University of Ireland, …, priority 2011, dated 2014).
Entries after “also recorded” stand apart in the source; their conditions may differ.

Tests used:
[1] = tested on: hyaloid vasculature in zebrafish; test: Zebrafish developmental angiogenesis assay: number of primary branches of hyaloid vasculature on dissected lens; assay type: in vivo; conditions: 10 μM, treated day 1-5, analysed 5 dpf
Excerpt: We have used the zebrafish model as an in vivo screen for chemical libraries as the small size and transparency of the zebra fish enables high-content screens in multi-well plate formats (MacRae and Peterson, 2003; Pichler et al., 2003; Peterson et al., 2004; den Hertog, 2005; Zon and Peterson, 2005). […] To identify anti-angiogenic drugs we used a transgenic line of zebrafish that expresses a fluorescent reporter (EGFP) specifically in vasculature (Tg(fli1:efgp)). This line was obtained from the Zebrafish International Resource Center. Our assay involved screening the effect of drugs in the library on the development of blood vessels in zebrafish. Specifically, we looked at the integrity of vessels developing in the eye (hyaloid vessels attached to the lens) and in the trunk.
All experiments were carried out under ethical approval granted by the UCD animal research ethics committee. Tg(fli1:EGFP) zebrafish were maintained according to standard procedures on a 14 hr light/10 hr dark cycle at 28° C. Referring to the schematic of FIG. 1A, embryos were obtained by natural spawning and developmental stages established by time and morphological criteria. A chemical library containing numerous compounds was screened (FIG. 1A). In this specific example, the chemical library contained 5000 compounds of the DIVERSet™ collection from ChemBridge Corp., USA. At 24 hours post fertilisation (hpf), 5 embryos per well were placed in […] of Embryo Medium/1% DMSO and incubated with drug at 28° C. on a 14 h light/10 h dark cycle. Larvae were euthanised, and fixed in 4% PFA at 4° C. overnight before analysis. (FIG. 1A).
Right lenses were dissected from the larvae and transferred to depression slides for observation under epi-fluorescence in the Olympus SZX16 and to cover-slip bottom Petri-dishes for confocal microscopy in a Zeiss UV510 META LSM system (20× and 40× inverted objectives). To achieve appropriate orientation, lenses were embedded in 10% methyl-cellulose and manipulated with a tungsten needle (0.5 mm diameter). Patterning of the hyaloid vessels on the treated larval lenses was compared to DMSO controls and the archetypal pattern previously described (Alvarez et al., 2007; Alvarez et al., 2009). The number of primary vessels radiating from the back of the lens (3-4 main branches at 5 dpf in controls and previously described), was counted and the average number was graphed for each drug. From screens of ˜1600 small molecules, four “hits” that inhibited the number of primary hyaloids vessels were identified (FIG. 1B).
To validate the “hits” from the library screen, dose-dependence experiments were conducted by screening the drugs in the assay described in Example 2 above but at a range of increasing concentrations between 1-10 μM. Larvae were maintained under the drug treatments at 28° C. on 14 hr light/10 hr dark cycle until 5 days post fertilisation (dpf), when they were euthanised and fixed in 4% PFA at 4° C. overnight before analysis. The average number of primary hyaloids branches was graphed for each concentration of drug. […] One of the lead compounds identified by the screen of chemical library was 11B which has the chemical name 2-[2-2-quinolinyl)vinyl]phenol and its structure shown below: […]

[2] = tested on: mouse model of oxygen induced retinopathy (OIR); test: Mouse oxygen-induced retinopathy (OIR) model of ocular neovascularisation; assay type: in vivo; conditions: 2 μg/μl, postnatal day 12-17, intravitreal
Method: To assess the ability of compound 11B to inhibit ocular neovascularisation in mammalian eyes, 11B was tested in the mouse model of oxygen induced retinopathy (OIR). […] 11B was injected intravitreally into a mouse model of oxygen-induced retinopathy (OIR). The OIR model was generated by placing postnatal day 7 (P7) mouse pups into hyperoxia (75% oxygen) for 5 days and then removing them to normoxia (21%) on postnatal day 12 (P12). The hyperoxic (high oxygen) environment causes retinal blood vessels to regress between P7 and P12. The normoxic environment on P12 is a relatively hypoxic (low oxygen) environment for the mice and causes the growth of new blood vessels (angiogenesis). For all samples, eyes were enucleated, fixed, flat mounted and then stained with an isolectin antibody to visualise the blood vessels. Blood vessels were quantified and those treated with lead compounds compared to controls.

[3] = tested on: dermal-derived normal human microvascular endothelial cells (HMVEC-d); test: In vitro HMVEC-d tube formation assay on Matrigel; assay type: cell-based; conditions: 100 nM, 20 hr
Method: HMVEC-d were purchased from Clonetics, San Diego, Calif., USA. Cells were maintained in complete Endothelial Cell Medium (Clonetics® EGM®-2-MV BulletKit®) containing 500 ml of Endothelial Cell Basal Medium-2 and supplemented with hEGF, 0.5 ml; Hydrocortisone, 0.2 ml; GA-1000, 0.5 ml; FBS, 25 ml; VEGF, 0.5 ml; hFGF-B, 2.0 ml; R3-IGF-1, 0.5 ml; Ascorbic Acid, 0.5 ml in a 37° C. humidified atmosphere of 5% CO2/95% air. HMVEC-d were used for experiments between passages 4-8.
Matrigel (Becton Dickenson) basement membrane matrix was used to examine HMVEC-d tube formation. Matrigel (50 μl) was plated in 96 well culture plate wells after thawing on ice and allowed to polymerise at 37° C. 5% CO2 humidified atmosphere for 1 hr. HMVEC-d were removed from culture, trypsinised, and resuspended in full strength EGM growth medium. Cells were seeded at a density of 50×10^4 cells/cm^2 and incubated for 20 hr at 37° C. 5% CO2 humidified atmosphere. Endothelial cell tubule formation was assessed using phase contrast microscopy and photographed. A connecting branch between two discrete ECs was counted as one tube. The tube analysis was determined from 3 sequential fields (magnification×10) focusing on the surface of the matrigel.

Row | Molecule | number of primary branches of hyaloid vasculature [1] | avascular area of the retina in treated eyes [2] [%] | inhibition of HMVEC-d tubule formation [3]
1 | COc1cc2c(cc1OC)C(c1ccc3c(c1)OCO3)N(C)CC2 (racemic) [11F-522, 1-(1,3-benzodioxol-5-yl)-6,7-dimethoxy-2-methyl-1,2,3,4-tetrahydroisoquinoline] | inhibited developmental angiogenesis; also recorded: significant (p<0.05) reduction; also recorded: significant inhibition; also recorded: significantly reduce |  | 
2 | COc1cc2c(cc1OC)[C@@H](c1ccc3c(c1)OCO3)N(C)CC2 (single isomer, unassigned) [11F-522R] | significant (p<0.05) reduction; also recorded: significantly reduce |  | 
3 | COc1cc2c(cc1OC)[C@H](c1ccc3c(c1)OCO3)N(C)CC2 (single isomer, unassigned) [11F-522S] | did not reduce |  | 
4 | Oc1ccc(/C=C\c2ccnc3ccccc23)cc1 [11B-799, 4-[2-(4-quinolinyl)vinyl]phenol] | inhibits developmental angiogenesis; also recorded: significant inhibition |  | 
5 | Avastin: clinically used anti-angiogenic monoclonal antibody, anti-VEGF [reference compound] |  | ~22 | significantly inhibited
